{
  "source": "paper PMC3006453",
  "about": "(Journal of structural biology, 2010)",
  "key": {"AtMTAN1 [1]": {"target": "T1, AtMTAN1 (Arabidopsis thaliana, UniProt Q9T0I8)", "assay": "Xanthine oxidase-coupled spectrophotometric assay of substrate hydrolysis", "type": "biochemical"}, "AtMTAN1-Glu202Gln": {"target": "AtMTAN1-Glu202Gln (Arabidopsis thaliana, UniProt Q9T0I8, E202Q)", "assay": "Isothermal titration calorimetry, ligand binding to AtMTAN1-Glu202Gln mutant"}, "EcMTAN-Glu174Gln": {"target": "EcMTAN-Glu174Gln (Escherichia coli, UniProt P0AF12, E174Q)", "assay": "Isothermal titration calorimetry, ligand binding to EcMTAN-Glu174Gln mutant", "conditions": "for N: ITC stoichiometry; for ΔH / −TΔS: pH 7.5, 25 °C"}, "AtMTAN1 [2]": {"target": "T1, AtMTAN1", "conditions": "ref Siu et al., 2008a, cited from earlier work; for hydrolysis of substrates with extended 5′-substituents by AtMTAN1: previous kinetics studies"}, "EcMTAN": {"test_system": "EcMTAN", "conditions": "substrate SAH; no reference and method not given"}, "AtMTAN2": {"test_system": "AtMTAN2", "conditions": "ref Siu et al., 2008a; cited from earlier work"}, "AtMTAN1 [3]": {"target": "T1, AtMTAN1", "assay": "Isothermal titration calorimetry, ligand binding to wild-type AtMTAN1"}, "[4]": {"conditions": "ITC stoichiometry, single-binding site model"}, "[5]": {"conditions": "ITC, 50 mM sodium-HEPES pH 7.5, 25 °C, single-binding site model"}},
  "note": "Entries after “also recorded” stand apart in the source; their conditions may differ. Where two headings read alike, the source gives them in different places.",
  "data": [
    {"compound": "5′-methylthioadenosine [MTA]", "values": [
      {"measurement": "Km", "setting": "AtMTAN1 [1]; substrate MTA, wild-type AtMTAN1, no reference given", "value": "1.5 ± 0.2", "unit": "µM"},
      {"measurement": "N", "setting": "AtMTAN1-Glu202Gln; [4]", "value": "0.97 ± 0.04"},
      {"measurement": "Kd", "setting": "AtMTAN1-Glu202Gln; [5]", "value": "94.8 ± 4", "unit": "µM"},
      {"measurement": "ΔH", "setting": "AtMTAN1-Glu202Gln; ITC, pH 7.5, 25 °C", "value": "5.6 ± 0.3", "unit": "kcal/mol"},
      {"measurement": "−TΔS", "setting": "AtMTAN1-Glu202Gln; ITC, pH 7.5, 25 °C", "value": -11.1, "unit": "kcal/mol"},
      {"measurement": "N", "setting": "EcMTAN-Glu174Gln; single-binding site model", "value": "0.94 ± 0.01"},
      {"measurement": "Kd", "setting": "EcMTAN-Glu174Gln; [5]", "value": "4.8 ± 0.4", "unit": "µM"},
      {"measurement": "ΔH", "setting": "EcMTAN-Glu174Gln; ITC", "value": "-9.6 ± 0.1", "unit": "kcal/mol"},
      {"measurement": "−TΔS", "setting": "EcMTAN-Glu174Gln; ITC", "value": 2.4, "unit": "kcal/mol"}
    ]},
    {"compound": "5′-isobutylthioadenosine", "values": [
      {"measurement": "hydrolysis of substrates with extended 5′-substituents by AtMTAN1", "setting": "AtMTAN1 [2]", "value": "can hydrolyze"}
    ]},
    {"compound": "Nc1ncnc2c1ncn2[C@@H]1O[C@H](CSCC[C@H](N)C(=O)O)[C@@H](O)[C@H]1O", "note": "[SAH, S-adenosylhomocysteine]", "values": [
      {"measurement": "Km", "setting": "EcMTAN", "value": "1.3 ± 0.2", "unit": "µM"},
      {"measurement": "activity towards the substrate", "setting": "AtMTAN2", "value": 14, "unit": "%"},
      {"measurement": "catalytic activity (hydrolysis) of AtMTAN1 towards the substrate", "setting": "AtMTAN1 [1]; kinetics and ITC studies, 10- and 30-min durations", "value": "does not hydrolyze; also recorded: did not detect catalytic activity"},
      {"measurement": "activity of AtMTAN1 towards the substrate", "setting": "AtMTAN1 [2]", "value": "completely inactive"},
      {"measurement": "Kd", "setting": "AtMTAN1-Glu202Gln", "value": "> 600", "unit": "µM"},
      {"measurement": "Kd", "setting": "AtMTAN1-Glu202Gln; [5]", "value": "No interaction is detected; also recorded: Not detected"},
      {"measurement": "Kd", "setting": "EcMTAN-Glu174Gln", "value": "9.3 ± 0.4", "unit": "µM"},
      {"measurement": "N", "setting": "EcMTAN-Glu174Gln; single-binding site model", "value": "0.94 ± 0.01"},
      {"measurement": "ΔH", "setting": "EcMTAN-Glu174Gln; ITC", "value": "-7.9 ± 0.1", "unit": "kcal/mol"},
      {"measurement": "−TΔS", "setting": "EcMTAN-Glu174Gln; ITC", "value": 1.0, "unit": "kcal/mol"}
    ]},
    {"compound": "5′-butylthioadenosine", "values": [
      {"measurement": "hydrolysis of substrates with extended 5′-substituents by AtMTAN1", "setting": "AtMTAN1 [2]", "value": "can hydrolyze"}
    ]},
    {"compound": "Nc1ncnc2[nH]cnc12", "note": "[ADE, adenine]", "values": [
      {"measurement": "Kd", "setting": "AtMTAN1 [3]", "value": "1.7 ± 0.1", "unit": "µM"},
      {"measurement": "N", "setting": "AtMTAN1 [3]; [4]", "value": "0.99 ± 0.003"},
      {"measurement": "ΔH", "setting": "AtMTAN1 [3]; ITC, pH 7.5, 25 °C", "value": "-10.3 ± 0.5", "unit": "kcal/mol"},
      {"measurement": "−TΔS", "setting": "AtMTAN1 [3]; ITC, pH 7.5, 25 °C", "value": 2.4, "unit": "kcal/mol"}
    ]}
  ]
}
